Test results from paper PMC4669708 (Cell Death & Disease, 2015).
Where two headings read alike, the source gives them in different places.

Experiments:
TAOK3 = molecular target: T1, TAOK3 (Homo sapiens, UniProt Q9H2K8); experiment: c-ponatinib pulldown LC-MS/MS; assay type: binding
T1 sequence (Q9H2K8 1-898): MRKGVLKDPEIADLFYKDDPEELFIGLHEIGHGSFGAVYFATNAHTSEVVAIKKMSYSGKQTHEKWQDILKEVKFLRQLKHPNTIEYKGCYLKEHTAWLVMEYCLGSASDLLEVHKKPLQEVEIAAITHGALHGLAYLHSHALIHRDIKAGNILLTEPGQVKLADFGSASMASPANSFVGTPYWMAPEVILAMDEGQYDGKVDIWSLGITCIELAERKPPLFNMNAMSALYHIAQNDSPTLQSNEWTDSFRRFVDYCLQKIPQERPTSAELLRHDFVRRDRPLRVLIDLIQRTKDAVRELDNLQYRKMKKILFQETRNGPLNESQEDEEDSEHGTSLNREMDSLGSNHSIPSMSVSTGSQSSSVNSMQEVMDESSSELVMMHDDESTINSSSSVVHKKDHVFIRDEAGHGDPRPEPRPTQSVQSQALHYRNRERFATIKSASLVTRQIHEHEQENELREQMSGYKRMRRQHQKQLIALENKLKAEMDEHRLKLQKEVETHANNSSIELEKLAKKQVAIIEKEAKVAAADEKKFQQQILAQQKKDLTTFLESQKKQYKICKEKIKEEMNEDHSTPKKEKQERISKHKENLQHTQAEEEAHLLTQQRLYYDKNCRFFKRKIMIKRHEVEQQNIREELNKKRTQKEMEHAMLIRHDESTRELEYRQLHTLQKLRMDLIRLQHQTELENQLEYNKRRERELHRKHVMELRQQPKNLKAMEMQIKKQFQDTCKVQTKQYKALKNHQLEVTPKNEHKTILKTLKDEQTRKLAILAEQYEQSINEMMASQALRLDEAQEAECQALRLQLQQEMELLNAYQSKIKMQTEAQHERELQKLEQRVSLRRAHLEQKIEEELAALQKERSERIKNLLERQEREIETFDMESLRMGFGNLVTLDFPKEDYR
Experimental: (§1) Drug-affinity matrices were prepared as described previously.[51] In brief, 25 nmol of c-ponatinib were immobilized on 50 μl NHS-activated Sepharose 4 Fast Flow beads (GE Healthcare Bio-Sciences AB, Uppsala, Sweden). 10 mg whole cell lysate was used as protein input per replicate. Affinity chromatography and elution were performed in duplicate. After elution, the enriched proteins were reduced with dithiothreitol (DTT) and cysteine residues were alkylated by incubation with iodoacetamide. The samples were digested with modified porcine trypsin (Promega). Five percent of the digested eluates were purified and concentrated by C18 reversed-phase material. Subsequently, samples were analyzed in duplicates by gel-free one-dimensional LCMS.
(§2) Precursor and MS/MS peaks were extracted from the RAW files and saved in the MGF format using msconvert tool (ProteoWizard Library v2.1.2708, www.proteowizard.sourceforge.net) for subsequent protein identification. An initial database search was performed with broader mass tolerance and conservative score threshold to re-calibrate the mass lists for optimal final protein identification. For the initial protein database search, Mascot (www.matrixscience.com, v2.3.02) was used. Error tolerances on the precursor and fragment ions were ±10 p.p.m. and ±0.6 Da, respectively, and the database search limited to fully-tryptic peptides with maximum one missed cleavage, carbamidomethyl cysteine and methionine oxidation set as fixed and variable modifications, respectively. The Mascot peptide ion score threshold was set to 30, and at least three peptide identifications per protein were required. Searches were performed against the human UniProtKB/SwissProt database (www.uniprot.org release 2013.01) including all protein isoforms. The initial peptide identifications were used to deduce independent linear transformations for precursor and fragment masses that would minimize the mean square deviation of measured masses from theoretical. Re-calibrated mass list files were searched against the same human protein database by a combination of Mascot and Phenyx (GeneBio SA, Geneva, Switzerland; version 2.5.14) search engines using narrower mass tolerances (±4 p.p.m. and ±0.3 Da). One missed tryptic cleavage site was allowed. Carbamidomethyl cysteine was set as a fixed modification and oxidized methionine was set as a variable modification. To validate the proteins, Mascot and Phenyx output files were processed by internally developed parsers. Proteins with ≥2 unique peptides above a score T1, or with a single peptide above a score T2 were selected as unambiguous identifications. Additional peptides for these validated proteins with score >T3 were also accepted. For Mascot searches, the following thresholds were used: T1=14, T2=40 and T3=10; Phenyx thresholds were set to 4.2, 4.75 and 3.5, respectively (P-value<10^−3). The validated proteins retrieved by the two algorithms were merged, any spectral conflicts discarded and grouped according to shared peptides. A false discovery rate of <1% for protein identifications and <0.1% for peptides (including the ones exported with lower scores) was determined by applying the same procedure against a database of reversed protein sequences. […] In addition to Mascot protein scores that were proposed as an estimate of protein abundance by the original algorithm, the modified version also included Phenyx protein scores and spectral counts. The algorithm first estimated three measure-specific P-values for each putative interaction, and, in contrast to,[69] P-value calculation utilized the quantiles of the measurements rather than the original data. The Fisher's method was used to combine the three resulting P-values into a single P-value for drug–protein interaction specificity. We have also correlated interaction P-values with the magnitude of competition effect represented by the fold reduction of spectral counts on free compound competition. […]

CDK16 = CDK16 (Homo sapiens, UniProt Q00536); experiment: c-ponatinib pulldown LC-MS/MS; assay type: binding
Sequence of CDK16 (Q00536 whole entry): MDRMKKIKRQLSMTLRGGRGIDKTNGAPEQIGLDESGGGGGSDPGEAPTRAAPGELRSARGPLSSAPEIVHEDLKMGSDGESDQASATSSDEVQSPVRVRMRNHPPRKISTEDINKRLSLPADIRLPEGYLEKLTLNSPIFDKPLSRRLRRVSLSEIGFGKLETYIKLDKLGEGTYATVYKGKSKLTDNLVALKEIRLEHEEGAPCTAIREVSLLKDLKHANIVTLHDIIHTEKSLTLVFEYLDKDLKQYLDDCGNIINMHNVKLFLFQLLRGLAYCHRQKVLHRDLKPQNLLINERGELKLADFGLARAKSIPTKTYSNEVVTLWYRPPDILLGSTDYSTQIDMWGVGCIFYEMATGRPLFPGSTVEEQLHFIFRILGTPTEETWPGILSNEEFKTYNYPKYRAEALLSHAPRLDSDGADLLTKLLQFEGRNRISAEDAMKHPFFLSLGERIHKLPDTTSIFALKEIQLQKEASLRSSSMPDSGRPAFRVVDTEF
Experimental: as §1, §2

HT-29 cells = experiment: Drug toxicity, cell viability 24 h; assay type: cell-based; conditions: Homo sapiens, HT-29, 24 h
Experimental: Cells were seeded in 12-, 24- or 96-well plates at proper cell density. For necroptosis or apoptosis assays, cells were incubated with the indicated compound combinations at concentrations stated for 14–24 h. Smac mimetic and z-VAD-FMK were added 30–60 min before treatment with TNF-α, FasL or TRAIL. Cell viability was determined using CellTiter Glo Luminescent Cell Viability Assay (Promega, Fitchburg, WI, USA) according to the manufacturer's instructions. Luminescence was recorded with a SpectraMax M5Multimode plate reader (Molecular Devices, Sunnyvale, CA, USA). For flow cytometry-based determination of viability, cells were harvested, collected by centrifugation, washed once and resuspended in staining buffer (1 × PBS, 10% FBS). Cells were incubated with 0.5 μg/ml PI for 10 min at room temperature (RT) in the dark. Flow cytometric analyses were performed on an LSR Fortessa (BD Biosciences) and analyzed with FlowJo software version 7.6.3 (Tree Star Inc, Ashland, OR, USA). Cell size was evaluated by forward scatter. PI-negative normal-sized cells were considered living and data were normalized to values of untreated controls.

## Cc1ccc(C(=O)Nc2ccc(CN3CCN(CCCN)CC3)c(C(F)(F)F)c2)cc1C#Cc1cnc2cccnn12 [c-ponatinib]
TAOK3; + free ponatinib
  Av. SC comp.: 2
  Total SC comp.: 8
TAOK3; no competitor
  Av. SC: 13
  Total SC: 52
CDK16; + free ponatinib
  Av. SC comp.: 1.25
  Total SC comp.: 5
CDK16; no competitor
  Av. SC: 10.75
  Total SC: 43

## Cc1ccc(C(=O)Nc2ccc(CN3CCN(C)CC3)c(C(F)(F)F)c2)cc1C#Cc1cnc2cccnn12 [ponatinib, Ponatinib]
HT-29 cells; read-out: IC50 (printed in Figure 2e)
  IC50: 8.89 µM
HT-29 cells; read-out: IC50 (toxicity)
  IC50: 8.9 µM
